Test results reported in PubChem BioAssay AID1963825 (Molecular Pharmacology Branch, DTP, NCI, 2024).
pIC50: −log10 of the molar value.

Assay: Anticancer human tumor 997537-175-T-J1-PDC patient-derived colon adenocarcinoma cell line growth inhibition [POLQ]
Settings: 997537-175-T-J1-PDC complex spheroid viability, combination with POLQ inhibitors; for pIC50: curve of first compound; for viability, T/C: stronger effect = lower value
How it was run: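 Patient-derived tumour cells were co-cultured with HUVEC and mesenchymal stem cells as multicellular spheroids at 37 °C. They were treated with POLQ inhibitors (novobiocin, ART-558, RP6685) alone or combined with other agents. Top concentrations were at or near clinical Cmax (otherwise 10 microM; SN-38 at 1 microM), decreasing in half-log steps.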

[1] = second compound 0.0316 µM, first compound 0.0316 µM
[2] = second compound 0.0316 µM, first compound 0.1 µM
[3] = second compound 0.0316 µM, first compound 0.316 µM
[4] = second compound 0.0316 µM, first compound 1 µM
[5] = second compound 0.0316 µM, first compound 3.16 µM
[6] = second compound 0.0316 µM, first compound 10 µM
[7] = second compound 0.1 µM, first compound 0.0316 µM
[8] = second compound 0.1 µM, first compound 0.1 µM
[9] = second compound 0.1 µM, first compound 0.316 µM
[10] = second compound 0.1 µM, first compound 1 µM
[11] = second compound 0.1 µM, first compound 3.16 µM
[12] = second compound 0.1 µM, first compound 10 µM
[13] = second compound 0.316 µM, first compound 0.0316 µM
[14] = second compound 0.316 µM, first compound 0.1 µM
[15] = second compound 0.316 µM, first compound 0.316 µM
[16] = second compound 0.316 µM, first compound 1 µM
[17] = second compound 0.316 µM, first compound 3.16 µM
[18] = second compound 0.316 µM, first compound 10 µM
[19] = second compound 1 µM, first compound 0.0316 µM
[20] = second compound 1 µM, first compound 0.1 µM
[21] = second compound 1 µM, first compound 0.316 µM
[22] = second compound 1 µM, first compound 1 µM
[23] = second compound 1 µM, first compound 3.16 µM
[24] = second compound 1 µM, first compound 10 µM
[25] = second compound 3.16 µM, first compound 0.0316 µM
[26] = second compound 3.16 µM, first compound 0.1 µM
[27] = second compound 3.16 µM, first compound 0.316 µM
[28] = second compound 3.16 µM, first compound 1 µM
[29] = second compound 3.16 µM, first compound 3.16 µM
[30] = second compound 3.16 µM, first compound 10 µM
[31] = second compound 10 µM, first compound 0.0316 µM
[32] = second compound 10 µM, first compound 0.1 µM
[33] = second compound 10 µM, first compound 0.316 µM
[34] = second compound 10 µM, first compound 1 µM
[35] = second compound 10 µM, first compound 3.16 µM
[36] = second compound 10 µM, first compound 10 µM
[37] = second compound 0.0316 µM, first compound 0.00316 µM
[38] = second compound 0.0316 µM, first compound 0.01 µM
[39] = second compound 0.1 µM, first compound 0.00316 µM
[40] = second compound 0.1 µM, first compound 0.01 µM
[41] = second compound 0.316 µM, first compound 0.00316 µM
[42] = second compound 0.316 µM, first compound 0.01 µM
[43] = second compound 1 µM, first compound 0.00316 µM
[44] = second compound 1 µM, first compound 0.01 µM
[45] = second compound 3.16 µM, first compound 0.00316 µM
[46] = second compound 3.16 µM, first compound 0.01 µM
[47] = second compound 10 µM, first compound 0.00316 µM
[48] = second compound 10 µM, first compound 0.01 µM
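Note: luminescence signal used as a surrogate for viable cells; spheroids exposed to drugs for seven days before readout.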

Work on `CCCS(=O)(=O)Nc1ccc(F)c(C(=O)c2c[nH]c3ncc(-c4ccc(Cl)cc4)cc23)c1F` + Cc1cccc(N(C)C(=O)C2C(O)CCN2c2nc(C)cc(C(F)(F)F)c2C#N)c1 yielded a pIC50 (second compound 0.0316 µM) of 5.31, a pIC50 (second compound 0.1 µM) of 5.27 and a pIC50 (second compound 0.316 µM) of 5.23. The pIC50 (second compound 1 µM) was 5.35, the pIC50 (second compound 3.16 µM) was 5.18 and the pIC50 (second compound 10 µM) was 5.29. The viability, T/C [1] was 100%, the viability, T/C [2] was 79.5% and the viability, T/C [3] was 82.5%. The viability, T/C [4] was 75.4%, the viability, T/C [5] was 70.5% and the viability, T/C [6] was 22.8%. It also gave a viability, T/C [7] of 105%, a viability, T/C [8] of 91.7% and a viability, T/C [9] of 82.4%. It also gave a viability, T/C [10] of 83%, a viability, T/C [11] of 74.5% and a viability, T/C [12] of 25.9%. For the same compound, the viability, T/C [13] was 105%, the viability, T/C [14] was 78% and the viability, T/C [15] was 71.7%. It also gave a viability, T/C [16] of 75.4%, a viability, T/C [17] of 80.8% and a viability, T/C [18] of 23.1%. For the same compound, the viability, T/C [19] was 102%, the viability, T/C [20] was 87.4% and the viability, T/C [21] was 85.9%. It also gave a viability, T/C [22] of 75.7%, a viability, T/C [23] of 61.5% and a viability, T/C [24] of 29.5%. For the same compound, the viability, T/C [25] was 85.7%, the viability, T/C [26] was 77% and the viability, T/C [27] was 77.7%. It also gave a viability, T/C [28] of 68%, a viability, T/C [29] of 75.1% and a viability, T/C [30] of 36.7%. For the same compound, the viability, T/C [31] was 92.3%, the viability, T/C [32] was 88.9% and the viability, T/C [33] was 86.1%. For the same compound, the viability, T/C [34] was 81.5%, the viability, T/C [35] was 73.3% and the viability, T/C [36] was 20.6%.
`CCc1c2c(nc3ccc(O)cc13)-c1cc3c(c(=O)n1C2)COC(=O)[C@]3(O)CC` + Cc1cccc(N(C)C(=O)C2C(O)CCN2c2nc(C)cc(C(F)(F)F)c2C#N)c1 gave a pIC50 (second compound 0.0316 µM) of 7.71, a pIC50 (second compound 0.1 µM) of 7.74 and a pIC50 (second compound 0.316 µM) of 7.66. It also gave a pIC50 (second compound 1 µM) of 7.82, a pIC50 (second compound 3.16 µM) of 7.76 and a pIC50 (second compound 10 µM) of 7.72. The viability, T/C [37] was 81.5%, the viability, T/C [38] was 68.8% and the viability, T/C [1] was 36.7%. It also gave a viability, T/C [2] of 13.7%, a viability, T/C [3] of 5.85% and a viability, T/C [4] of 4.36%. It also gave a viability, T/C [39] of 86.2%, a viability, T/C [40] of 70.1% and a viability, T/C [7] of 30.7%. For the same compound, the viability, T/C [8] was 11.7%, the viability, T/C [9] was 6.03% and the viability, T/C [10] was 4.13%. For the same compound, the viability, T/C [41] was 82.7%, the viability, T/C [42] was 77.2% and the viability, T/C [13] was 35.8%. For the same compound, the viability, T/C [14] was 15.8%, the viability, T/C [15] was 5.26% and the viability, T/C [16] was 5.26%. The viability, T/C [43] was 79.8%, the viability, T/C [44] was 59.5% and the viability, T/C [19] was 33.5%. It also gave a viability, T/C [20] of 14.4%, a viability, T/C [21] of 5.49% and a viability, T/C [22] of 5.83%. It also gave a viability, T/C [45] of 91.5%, a viability, T/C [46] of 65.3% and a viability, T/C [25] of 33%. The viability, T/C [26] was 14.8%, the viability, T/C [27] was 6.21% and the viability, T/C [28] was 5.14%. For the same compound, the viability, T/C [47] was 81.4%, the viability, T/C [48] was 63% and the viability, T/C [31] was 39.5%. The viability, T/C [32] was 18.7%, the viability, T/C [33] was 5.71% and the viability, T/C [34] was 7.45%.
For `CNCc1ccc(-c2[nH]c3cc(F)cc4c3c2CCNC4=O)cc1` + Cc1cccc(N(C)C(=O)C2C(O)CCN2c2nc(C)cc(C(F)(F)F)c2C#N)c1, the pIC50 (second compound 0.0316 µM) was less than 5.00, the pIC50 (second compound 0.1 µM) was less than 5.00 and the pIC50 (second compound 0.316 µM) was less than 5.00. For the same compound, the pIC50 (second compound 1 µM) was less than 5.00, the pIC50 (second compound 3.16 µM) was less than 5.00 and the pIC50 (second compound 10 µM) was less than 5.00. The viability, T/C [1] was 94.7%, the viability, T/C [2] was 114% and the viability, T/C [3] was 81.6%. For the same compound, the viability, T/C [4] was 87.9%, the viability, T/C [5] was 109% and the viability, T/C [6] was 85.3%. It also gave a viability, T/C [7] of 119%, a viability, T/C [8] of 94.2% and a viability, T/C [9] of 103%. For the same compound, the viability, T/C [10] was 104%, the viability, T/C [11] was 101% and the viability, T/C [12] was 121%. For the same compound, the viability, T/C [13] was 105%, the viability, T/C [14] was 103% and the viability, T/C [15] was 99.5%. For the same compound, the viability, T/C [16] was 102%, the viability, T/C [17] was 119% and the viability, T/C [18] was 89.5%. For the same compound, the viability, T/C [19] was 92.4%, the viability, T/C [20] was 113% and the viability, T/C [21] was 99%. For the same compound, the viability, T/C [22] was 86.3%, the viability, T/C [23] was 99.8% and the viability, T/C [24] was 90.2%. The viability, T/C [25] was 116%, the viability, T/C [26] was 84.8% and the viability, T/C [27] was 99.8%. For the same compound, the viability, T/C [28] was 117%, the viability, T/C [29] was 82.1% and the viability, T/C [30] was 96.9%. The viability, T/C [31] was 103%, the viability, T/C [32] was 112% and the viability, T/C [33] was 94.2%. For the same compound, the viability, T/C [34] was 101%, the viability, T/C [35] was 95.5% and the viability, T/C [36] was 89.4%.
`COc1cccc(OCCCN)c1-c1cc(Nc2cnc(C#N)cn2)n[nH]1` + Cc1cccc(N(C)C(=O)C2C(O)CCN2c2nc(C)cc(C(F)(F)F)c2C#N)c1 showed a pIC50 (second compound 0.0316 µM) of 6.88, a pIC50 (second compound 0.1 µM) of 6.86 and a pIC50 (second compound 0.316 µM) of 6.90. For the same compound, the pIC50 (second compound 1 µM) was 7.41, the pIC50 (second compound 3.16 µM) was 7.63 and the pIC50 (second compound 10 µM) was 6.87. The viability, T/C [37] was 92.7%, the viability, T/C [38] was 97.7% and the viability, T/C [1] was 79%. For the same compound, the viability, T/C [2] was 60.8%, the viability, T/C [3] was 22.5% and the viability, T/C [4] was 27.9%. The viability, T/C [39] was 111%, the viability, T/C [40] was 107% and the viability, T/C [7] was 50.1%. The viability, T/C [8] was 73%, the viability, T/C [9] was 32.8% and the viability, T/C [10] was 31.2%. The viability, T/C [41] was 100%, the viability, T/C [42] was 79.8% and the viability, T/C [13] was 70.1%. For the same compound, the viability, T/C [14] was 45.3%, the viability, T/C [15] was 48.2% and the viability, T/C [16] was 20%. The viability, T/C [43] was 101%, the viability, T/C [44] was 79.1% and the viability, T/C [19] was 59.6%. For the same compound, the viability, T/C [20] was 25.9%, the viability, T/C [21] was 29.5% and the viability, T/C [22] was 27.4%. The viability, T/C [45] was 86.6%, the viability, T/C [46] was 85.4% and the viability, T/C [25] was 38%. It also gave a viability, T/C [26] of 20.6%, a viability, T/C [27] of 18.4% and a viability, T/C [28] of 36%. The viability, T/C [47] was 86.8%, the viability, T/C [48] was 73.6% and the viability, T/C [31] was 62.9%. For the same compound, the viability, T/C [32] was 45.8%, the viability, T/C [33] was 53.1% and the viability, T/C [34] was 30.1%.
